# Data as given in article PMC9954146, “Anti-Leukaemic Activity of Rilpivirine Is Mediated by Aurora A Kinase Inhibition” (Cancers, 2023).
# What was measured:
# Test in all cases: Kinase panel
# Format in all cases: biochemical
# Details in all cases: read-out: % Residual Activity
# Abl (M351T)(h) = molecular target: T1, Abl (M351T)(h) (Homo sapiens, UniProt P00519, M351T)
# T1 construct: purchased Eurofins (KinaseProfiler)
# Summary of the method: (§1)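 Steps: profile rilpivirine against a broad kinase panel; determine IC50 by radioactive assay using ATP at the kinase-specific Km; convert IC50 to Ki by the Cheng–Prusoff relationship.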
# STK39(h) = molecular target: T2, STK39(h) (Homo sapiens, UniProt Q9UEW8)
# T2 construct: purchased Eurofins (KinaseProfiler)
# Summary of the method: as §1
# CDK5/p35(h) = molecular target: T3, CDK5/p35(h) (Homo sapiens, UniProt Q00535)
# T3 construct: purchased Eurofins (KinaseProfiler)
# T3 sequence (Q00535 whole entry): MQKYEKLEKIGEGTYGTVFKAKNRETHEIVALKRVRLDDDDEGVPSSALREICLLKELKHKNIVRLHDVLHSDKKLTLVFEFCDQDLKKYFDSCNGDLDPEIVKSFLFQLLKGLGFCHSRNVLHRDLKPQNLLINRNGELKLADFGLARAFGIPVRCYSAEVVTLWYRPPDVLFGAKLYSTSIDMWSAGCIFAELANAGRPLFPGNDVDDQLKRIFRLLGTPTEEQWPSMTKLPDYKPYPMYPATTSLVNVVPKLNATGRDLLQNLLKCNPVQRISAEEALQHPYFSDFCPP
# T3 sequence (Q15078 whole entry partner): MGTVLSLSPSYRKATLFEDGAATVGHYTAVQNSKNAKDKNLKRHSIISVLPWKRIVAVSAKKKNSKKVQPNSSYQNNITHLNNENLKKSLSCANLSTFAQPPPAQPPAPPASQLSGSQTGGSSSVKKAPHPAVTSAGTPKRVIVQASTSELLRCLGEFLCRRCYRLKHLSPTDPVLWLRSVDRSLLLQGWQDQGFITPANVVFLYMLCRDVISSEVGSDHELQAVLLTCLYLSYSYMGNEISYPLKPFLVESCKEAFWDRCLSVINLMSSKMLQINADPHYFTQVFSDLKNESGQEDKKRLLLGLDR
# Summary of the method: as §1
# ErbB4(h) = molecular target: T4, ErbB4(h) (Homo sapiens, UniProt Q15303)
# T4 construct: purchased Eurofins (KinaseProfiler)
# Summary of the method: as §1
# EGFR(L861Q)(h) = molecular target: T5, EGFR(L861Q)(h) (Homo sapiens, UniProt P00533, L861Q)
# T5 construct: purchased Eurofins (KinaseProfiler)
# Summary of the method: as §1
# MYO3B(h) = molecular target: T6, MYO3B(h) (Homo sapiens, UniProt Q8WXR4)
# T6 construct: purchased Eurofins (KinaseProfiler)
# Summary of the method: as §1
# DMPK(h) = molecular target: T7, DMPK(h) (Homo sapiens, UniProt Q09013)
# T7 construct: purchased Eurofins (KinaseProfiler)
# T7 sequence (Q09013 whole entry): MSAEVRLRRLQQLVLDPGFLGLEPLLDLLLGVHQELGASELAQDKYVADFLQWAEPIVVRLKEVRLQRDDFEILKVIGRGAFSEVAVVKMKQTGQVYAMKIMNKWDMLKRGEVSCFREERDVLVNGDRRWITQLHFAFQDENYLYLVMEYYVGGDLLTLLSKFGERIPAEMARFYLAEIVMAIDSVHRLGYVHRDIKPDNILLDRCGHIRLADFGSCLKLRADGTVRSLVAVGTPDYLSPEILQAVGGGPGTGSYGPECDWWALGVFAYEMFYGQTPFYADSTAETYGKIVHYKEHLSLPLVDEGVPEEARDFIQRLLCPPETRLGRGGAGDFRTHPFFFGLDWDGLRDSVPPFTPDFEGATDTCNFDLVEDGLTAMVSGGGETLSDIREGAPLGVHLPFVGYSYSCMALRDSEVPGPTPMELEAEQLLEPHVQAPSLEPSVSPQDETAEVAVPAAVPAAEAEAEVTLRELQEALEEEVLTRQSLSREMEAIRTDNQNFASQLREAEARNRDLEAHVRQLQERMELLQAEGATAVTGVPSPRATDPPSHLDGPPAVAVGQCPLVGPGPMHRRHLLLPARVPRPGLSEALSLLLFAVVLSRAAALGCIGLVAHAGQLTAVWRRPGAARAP
# Summary of the method: as §1
# DCAMKL3(h) = molecular target: T8, DCAMKL3(h) (Homo sapiens, UniProt Q9C098)
# T8 construct: purchased Eurofins (KinaseProfiler)
# Summary of the method: as §1
# JNK2α2(h) = molecular target: T9, JNK2α2(h) (Homo sapiens, UniProt P45984)
# T9 construct: purchased Eurofins (KinaseProfiler)
# T9 sequence (P45984 whole entry): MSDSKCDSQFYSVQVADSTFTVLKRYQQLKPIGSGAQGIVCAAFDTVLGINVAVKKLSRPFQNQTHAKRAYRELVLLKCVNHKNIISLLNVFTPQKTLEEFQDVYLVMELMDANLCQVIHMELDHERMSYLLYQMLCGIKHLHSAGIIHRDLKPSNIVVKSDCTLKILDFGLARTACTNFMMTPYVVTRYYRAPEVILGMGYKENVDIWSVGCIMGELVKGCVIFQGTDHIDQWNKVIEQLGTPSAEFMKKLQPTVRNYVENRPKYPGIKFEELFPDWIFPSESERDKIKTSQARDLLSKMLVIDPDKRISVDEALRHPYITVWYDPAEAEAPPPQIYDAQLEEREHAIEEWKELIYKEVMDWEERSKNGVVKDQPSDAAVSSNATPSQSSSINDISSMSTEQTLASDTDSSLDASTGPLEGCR
# Summary of the method: as §1
# Axl(h) = molecular target: T10, Axl(h) (Homo sapiens, UniProt P30530)
# T10 construct: purchased Eurofins (KinaseProfiler)
# T10 sequence (P30530 26-894): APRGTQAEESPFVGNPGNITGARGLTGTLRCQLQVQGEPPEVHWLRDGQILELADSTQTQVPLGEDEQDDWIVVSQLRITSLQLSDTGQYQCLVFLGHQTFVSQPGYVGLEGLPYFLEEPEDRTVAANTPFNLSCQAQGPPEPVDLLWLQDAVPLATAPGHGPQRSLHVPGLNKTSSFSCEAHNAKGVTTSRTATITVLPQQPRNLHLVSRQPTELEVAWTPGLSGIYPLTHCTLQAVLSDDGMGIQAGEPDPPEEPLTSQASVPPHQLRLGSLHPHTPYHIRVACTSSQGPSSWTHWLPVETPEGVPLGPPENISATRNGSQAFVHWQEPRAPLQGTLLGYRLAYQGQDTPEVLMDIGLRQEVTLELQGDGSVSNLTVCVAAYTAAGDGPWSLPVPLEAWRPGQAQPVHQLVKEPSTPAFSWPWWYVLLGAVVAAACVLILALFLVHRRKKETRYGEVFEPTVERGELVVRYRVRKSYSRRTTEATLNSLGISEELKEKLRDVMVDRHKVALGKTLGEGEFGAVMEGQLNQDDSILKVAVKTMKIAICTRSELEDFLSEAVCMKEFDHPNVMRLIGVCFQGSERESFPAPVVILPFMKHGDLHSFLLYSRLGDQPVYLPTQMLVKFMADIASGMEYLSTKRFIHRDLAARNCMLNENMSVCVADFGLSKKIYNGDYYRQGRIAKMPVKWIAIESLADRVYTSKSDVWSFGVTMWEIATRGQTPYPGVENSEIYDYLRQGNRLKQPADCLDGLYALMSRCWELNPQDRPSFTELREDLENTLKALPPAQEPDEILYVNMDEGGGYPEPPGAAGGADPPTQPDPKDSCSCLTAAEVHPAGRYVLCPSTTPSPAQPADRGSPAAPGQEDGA
# Summary of the method: as §1
# Tie2(R849W)(h) = molecular target: T11, Tie2(R849W)(h) (Homo sapiens, UniProt Q02763, R849W)
# T11 construct: purchased Eurofins (KinaseProfiler)
# Summary of the method: as §1
# CHK2(I157T)(h) = molecular target: T12, CHK2(I157T)(h) (Homo sapiens, UniProt O96017, I157T)
# T12 construct: purchased Eurofins (KinaseProfiler)
# T12 sequence (O96017 whole entry I157T): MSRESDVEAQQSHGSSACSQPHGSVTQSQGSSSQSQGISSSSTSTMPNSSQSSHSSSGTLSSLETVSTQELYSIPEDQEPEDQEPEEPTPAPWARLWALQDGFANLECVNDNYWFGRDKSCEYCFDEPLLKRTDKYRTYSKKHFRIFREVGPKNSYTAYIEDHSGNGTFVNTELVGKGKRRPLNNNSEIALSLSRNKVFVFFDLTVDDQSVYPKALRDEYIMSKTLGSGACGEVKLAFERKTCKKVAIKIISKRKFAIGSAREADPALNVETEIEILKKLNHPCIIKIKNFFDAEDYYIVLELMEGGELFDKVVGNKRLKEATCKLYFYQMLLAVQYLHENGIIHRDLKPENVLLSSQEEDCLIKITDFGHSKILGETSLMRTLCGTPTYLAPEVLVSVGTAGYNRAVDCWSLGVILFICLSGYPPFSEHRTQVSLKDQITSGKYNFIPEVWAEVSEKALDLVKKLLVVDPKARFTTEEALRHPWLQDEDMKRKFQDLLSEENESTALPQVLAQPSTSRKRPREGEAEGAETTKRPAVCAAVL
# Summary of the method: as §1
# Ros(h) = molecular target: T13, Ros(h) (Homo sapiens, UniProt P08922)
# T13 construct: purchased Eurofins (KinaseProfiler)
# Summary of the method: as §1
# CDK12/cyclinK(h) = molecular target: T14, CDK12/cyclinK(h) (Homo sapiens, UniProt Q9NYV4)
# T14 construct: purchased Eurofins (KinaseProfiler)
# Summary of the method: as §1
# CDKL3(h) = molecular target: T15, CDKL3(h) (Homo sapiens, UniProt Q8IVW4)
# T15 construct: purchased Eurofins (KinaseProfiler)
# T15 sequence (Q8IVW4 whole entry): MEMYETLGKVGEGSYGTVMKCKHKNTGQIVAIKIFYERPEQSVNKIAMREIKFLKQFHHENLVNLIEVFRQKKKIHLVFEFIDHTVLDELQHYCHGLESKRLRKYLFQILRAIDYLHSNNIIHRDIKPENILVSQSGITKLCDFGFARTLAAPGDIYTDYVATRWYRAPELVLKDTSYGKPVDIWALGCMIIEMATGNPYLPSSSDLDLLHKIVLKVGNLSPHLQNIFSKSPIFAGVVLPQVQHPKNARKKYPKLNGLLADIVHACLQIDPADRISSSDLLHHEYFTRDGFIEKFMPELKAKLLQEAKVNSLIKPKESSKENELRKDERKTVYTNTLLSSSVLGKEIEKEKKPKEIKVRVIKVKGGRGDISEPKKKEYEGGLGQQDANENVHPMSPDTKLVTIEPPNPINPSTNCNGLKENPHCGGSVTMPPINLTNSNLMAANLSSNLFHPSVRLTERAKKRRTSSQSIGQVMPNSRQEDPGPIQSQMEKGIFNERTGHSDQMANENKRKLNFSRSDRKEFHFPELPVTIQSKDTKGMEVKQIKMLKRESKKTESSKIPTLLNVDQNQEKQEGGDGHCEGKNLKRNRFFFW
# Summary of the method: as §1
# SAPK2a(T106M)(h) = molecular target: T16, SAPK2a(T106M)(h) (Homo sapiens, UniProt Q16539, T106M)
# T16 construct: purchased Eurofins (KinaseProfiler)
# T16 sequence (Q16539 whole entry T106M): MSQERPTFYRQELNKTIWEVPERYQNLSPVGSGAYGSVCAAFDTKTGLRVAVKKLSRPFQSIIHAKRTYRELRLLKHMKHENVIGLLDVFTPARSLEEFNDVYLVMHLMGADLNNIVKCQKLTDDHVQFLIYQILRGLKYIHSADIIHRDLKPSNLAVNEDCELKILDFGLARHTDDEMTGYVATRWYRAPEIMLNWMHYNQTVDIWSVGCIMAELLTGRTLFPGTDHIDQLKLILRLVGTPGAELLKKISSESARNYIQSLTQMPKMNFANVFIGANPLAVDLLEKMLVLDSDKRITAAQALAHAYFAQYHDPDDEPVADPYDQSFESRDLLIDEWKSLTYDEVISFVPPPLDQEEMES
# Summary of the method: as §1
# EphB4(h) = molecular target: T17, EphB4(h) (Homo sapiens, UniProt P54760)
# T17 construct: purchased Eurofins (KinaseProfiler)
# Summary of the method: as §1
# EphA1(h) = molecular target: T18, EphA1(h) (Homo sapiens, UniProt P21709)
# T18 construct: purchased Eurofins (KinaseProfiler)
# Summary of the method: as §1
# c-RAF(h) = molecular target: T19, c-RAF(h) (Homo sapiens, UniProt P04049)
# T19 construct: purchased Eurofins (KinaseProfiler)
# T19 sequence (P04049 whole entry): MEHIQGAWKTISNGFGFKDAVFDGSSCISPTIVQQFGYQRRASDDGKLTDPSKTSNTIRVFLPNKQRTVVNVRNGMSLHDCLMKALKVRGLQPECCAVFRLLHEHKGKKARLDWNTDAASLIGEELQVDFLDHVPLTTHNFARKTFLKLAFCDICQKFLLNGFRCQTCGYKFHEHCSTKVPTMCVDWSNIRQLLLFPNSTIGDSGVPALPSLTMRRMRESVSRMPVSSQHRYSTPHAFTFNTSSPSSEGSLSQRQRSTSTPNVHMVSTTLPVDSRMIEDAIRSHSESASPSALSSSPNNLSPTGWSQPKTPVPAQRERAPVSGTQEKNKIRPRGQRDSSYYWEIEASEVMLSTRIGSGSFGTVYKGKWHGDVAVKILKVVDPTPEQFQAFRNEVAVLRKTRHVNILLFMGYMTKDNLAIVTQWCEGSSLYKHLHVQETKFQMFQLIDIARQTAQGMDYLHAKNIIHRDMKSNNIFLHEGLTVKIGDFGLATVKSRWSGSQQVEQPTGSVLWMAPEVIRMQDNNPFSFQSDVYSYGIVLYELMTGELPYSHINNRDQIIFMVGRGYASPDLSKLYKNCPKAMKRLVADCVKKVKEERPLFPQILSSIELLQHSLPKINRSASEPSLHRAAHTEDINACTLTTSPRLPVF
# Summary of the method: as §1
# TAO3(h) = molecular target: T20, TAO3(h) (Homo sapiens, UniProt Q9H2K8)
# T20 construct: purchased Eurofins (KinaseProfiler)
# Summary of the method: as §1
# NEK9(h) = molecular target: T21, NEK9(h) (Homo sapiens, UniProt Q8TD19)
# T21 construct: purchased Eurofins (KinaseProfiler)
# Summary of the method: as §1
# BTK(R28H)(h) = molecular target: T22, BTK(R28H)(h) (Homo sapiens, UniProt Q06187, R28H)
# T22 construct: purchased Eurofins (KinaseProfiler)
# Summary of the method: as §1
# TSSK1(h) = molecular target: T23, TSSK1(h) (Homo sapiens, UniProt Q9BXA7)
# T23 construct: purchased Eurofins (KinaseProfiler)
# Summary of the method: as §1
# NIM1(h) = molecular target: T24, NIM1(h) (Homo sapiens, UniProt Q8IY84)
# T24 construct: purchased Eurofins (KinaseProfiler)
# Summary of the method: as §1
# PDHK2(h) = molecular target: T25, PDHK2(h) (Homo sapiens, UniProt Q15119)
# T25 construct: purchased Eurofins (KinaseProfiler)
# Summary of the method: as §1
# EGFR(T790M)(h) = molecular target: T26, EGFR(T790M)(h) (Homo sapiens, UniProt P00533, T790M)
# T26 construct: purchased Eurofins (KinaseProfiler)
# Summary of the method: as §1
# JAK2(h) = molecular target: T27, JAK2(h) (Homo sapiens, UniProt O60674)
# T27 construct: purchased Eurofins (KinaseProfiler)
# Summary of the method: as §1
# Rsk4(h) = molecular target: T28, Rsk4(h) (Homo sapiens, UniProt Q9UK32)
# T28 construct: purchased Eurofins (KinaseProfiler)
# Summary of the method: as §1
# PAK5(h) = molecular target: T29, PAK5(h) (Homo sapiens, UniProt Q9P286)
# T29 construct: purchased Eurofins (KinaseProfiler)
# Summary of the method: as §1
# CaMKIIα(h) = molecular target: T30, CaMKIIα(h) (Homo sapiens, UniProt Q9UQM7)
# T30 construct: purchased Eurofins (KinaseProfiler)
# Summary of the method: as §1
# EphB2(h) = molecular target: T31, EphB2(h) (Homo sapiens, UniProt P29323)
# T31 construct: purchased Eurofins (KinaseProfiler)
# Summary of the method: as §1
# TAF1L(h) = molecular target: T32, TAF1L(h) (Homo sapiens, UniProt Q8IZX4)
# T32 construct: purchased Eurofins (KinaseProfiler)
# Summary of the method: as §1
# MRCKα(h) = molecular target: T33, MRCKα(h) (Homo sapiens, UniProt Q5VT25)
# T33 construct: purchased Eurofins (KinaseProfiler)
# Summary of the method: as §1
# ZAP-70(h) = molecular target: T34, ZAP-70(h) (Homo sapiens, UniProt P43403)
# T34 construct: purchased Eurofins (KinaseProfiler)
# Summary of the method: as §1
# [1] = molecular target: PI3 Kinase (p110a/p85a)(h) (Homo sapiens, UniProt P42336)
# Summary of the method: as §1
# PDGFRβ(h) = molecular target: T35, PDGFRβ(h) (Homo sapiens, UniProt P09619)
# T35 construct: purchased Eurofins (KinaseProfiler)
# Summary of the method: as §1
# [2] = molecular target: PI3 Kinase (p110a(E545K)/p85a)(h) (Homo sapiens, UniProt P42336, E545K)
# Summary of the method: as §1
structure (smiles),measurement,setting,value
"Cc1cc(/C=C/C#N)cc(C)c1Nc1ccnc(Nc2ccc(C#N)cc2)n1 [rilpivirine, (E)-4-((4-((4-(2-cyanoethenyl)-2,6-dimethylphenyl)amino)pyrimidin-2-yl)amino)benzonitrile]",remaining activity at 1 µM,Abl (M351T)(h),74%
same,remaining activity at 1 µM,STK39(h),95%
same,remaining activity at 1 µM,CDK5/p35(h),97%
same,remaining activity at 1 µM,ErbB4(h),88%
same,remaining activity at 1 µM,EGFR(L861Q)(h),35%
same,remaining activity at 1 µM,MYO3B(h),96%
same,remaining activity at 1 µM,DMPK(h),100%
same,remaining activity at 1 µM,DCAMKL3(h),95%
same,remaining activity at 1 µM,JNK2α2(h),85%
same,remaining activity at 1 µM,Axl(h),98%
same,remaining activity at 1 µM,Tie2(R849W)(h),86%
same,remaining activity at 1 µM,CHK2(I157T)(h),97%
same,remaining activity at 1 µM,Ros(h),77%
same,remaining activity at 1 µM,CDK12/cyclinK(h),85%
same,remaining activity at 1 µM,CDKL3(h),58%
same,remaining activity at 1 µM,SAPK2a(T106M)(h),90%
same,remaining activity at 1 µM,EphB4(h),86%
same,remaining activity at 1 µM,EphA1(h),56%
same,remaining activity at 1 µM,c-RAF(h),91%
same,remaining activity at 1 µM,TAO3(h),65%
same,remaining activity at 1 µM,NEK9(h),90%
same,remaining activity at 1 µM,BTK(R28H)(h),97%
same,remaining activity at 1 µM,TSSK1(h),86%
same,remaining activity at 1 µM,NIM1(h),88%
same,remaining activity at 1 µM,PDHK2(h),90%
same,remaining activity at 1 µM,EGFR(T790M)(h),79%
same,remaining activity at 1 µM,JAK2(h),72%
same,remaining activity at 1 µM,Rsk4(h),99%
same,remaining activity at 1 µM,PAK5(h),91%
same,remaining activity at 1 µM,CaMKIIα(h),61%
same,remaining activity at 1 µM,EphB2(h),78%
same,remaining activity at 1 µM,TAF1L(h),55%
same,remaining activity at 1 µM,MRCKα(h),86%
same,remaining activity at 1 µM,ZAP-70(h),97%
same,remaining activity at 1 µM,[1],98%
same,remaining activity at 1 µM,PDGFRβ(h),93%
same,remaining activity at 1 µM,[2],98%
